Mutagenic call data for seven compounds are collected here from PubChem BioAssay AID1259407 (Chemical Carcinogenesis Research Information System (CCRIS), 2018).

For the data set, the system named is CCRIS mutagenicity, Ames/micronucleus/aberration tests. The data set can be described thus: CCRIS mutagenicity studies.
Where [1] appears, read: Test System: AMES SALMONELLA TYPHIMURIUM, Strain/Indicator: TA98, Metabolic Activation: NONE, Method: PREINCUBATION
The mark [2] stands for this setting: Test System: AMES SALMONELLA TYPHIMURIUM, Strain/Indicator: TA100, Metabolic Activation: NONE, Method: PREINCUBATION
Setting [3] is: Test System: AMES SALMONELLA TYPHIMURIUM, Strain/Indicator: TA100, Metabolic Activation: RAT, LIVER, S-9, AROCLOR 1254, Method: STANDARD PLATE.
[4] abbreviates: Test System: AMES SALMONELLA TYPHIMURIUM, Strain/Indicator: TA100, Metabolic Activation: NONE, Method: STANDARD PLATE.

The structures appear in SMILES notation. Active and inactive are the calls of the source. The rule behind the calls is not given here.

Consider `O=[N+]([O-])c1ccc(Cl)cc1`, for which the mutagenic call was “active; positive (ploidy changes); precipitation occurred at 0.4, 0.5, and 0.6 mg/ml” (End Point: IN VITRO CHROMOSOMAL ABERRATIONS, Test System: CHL CELLS, Metabolic Activation: NONE); “active; positive (structural changes); authors report equivocal results for ploidy chang” (End Point: IN VITRO CHROMOSOMAL ABERRATIONS, Test System: CHL CELLS, Metabolic Activation: RAT, LIVER, S-9, SODIUM PHENOBARBITAL AND 5,6-BENZOFLAVONE); “inactive; negative” (End Point: IN VITRO CHROMOSOMAL ABERRATIONS, Test System: HUMAN PERIPHERAL LYMPHOCYTES, Metabolic Activation: NONE); “inactive; negative” under setting [1]; “inactive; negative” (Test System: AMES SALMONELLA TYPHIMURIUM, Strain/Indicator: TA98, Metabolic Activation: RAT, LIVER, S-9, KANECHLOR 500, Method: PREINCUBATION); “inactive; negative” under setting [2]. Also, the mutagenic call is “inactive; negative” (Test System: Ames Salmonella typhimurium, Strain/Indicator: TA98, Metabolic Activation: None, Method: Preincubation); “inactive; negative” (Test System: Ames Salmonella typhimurium, Strain/Indicator: TA98, Metabolic Activation: Rat, Liver, S9, Sodium phenobarbital and 5,6-benzoflavone (10%), Method: Preincubation); “inactive; negative” (Test System: Ames Salmonella typhimurium, Strain/Indicator: TA98, Metabolic Activation: Rat, Liver, S9, Sodium phenobarbital and 5,6-benzoflavone, Method: Preincubation); “inactive; negative” (Test System: Ames Salmonella typhimurium, Strain/Indicator: TA100, Metabolic Activation: None, Method: Preincubation); “inactive; negative” (Test System: Ames Salmonella typhimurium, Strain/Indicator: TA1535, Metabolic Activation: None, Method: Preincubation); “inactive; negative” (Test System: Ames Salmonella typhimurium, Strain/Indicator: TA1535, Metabolic Activation: Rat, Liver, S9, Sodium phenobarbital and 5,6-benzoflavone (10%), Method: Preincubation). For the same compound, the mutagenic call reads like this: (Test System: Ames Salmonella typhimurium, Strain/Indicator: TA1537, Metabolic Activation: None, Method: Preincubation) “inactive; negative”; (Test System: Ames Salmonella typhimurium, Strain/Indicator: TA1537, Metabolic Activation: Rat, Liver, S9, Sodium phenobarbital and 5,6-benzoflavone (10%), Method: Preincubation) “inactive; negative”; (Test System: Ames Salmonella typhimurium, Strain/Indicator: TA1537, Metabolic Activation: Rat, Liver, S9, Sodium phenobarbital and 5,6-benzoflavone, Method: Preincubation) “inactive; negative”; (Test System: E. coli, Strain/Indicator: WP2uvrA/PKM101, Metabolic Activation: None, Method: Preincubation) “inactive; negative”; (Test System: E. coli, Strain/Indicator: WP2uvrA/PKM101, Metabolic Activation: Rat, Liver, S9, Sodium phenobarbital and 5,6-benzoflavone (10%), Method: Preincubation) “inactive; negative”; (Test System: E. coli, Strain/Indicator: WP2uvrA/pKM101, Metabolic Activation: None, Method: Preincubation) “inactive; negative”. Further, the mutagenic call (Test System: E. coli, Strain/Indicator: WP2uvrA/pKM101, Metabolic Activation: Rat, Liver, S9, Sodium phenobarbital and 5,6-benzoflavone, Method: Preincubation) was “inactive; negative”.

`CC1c2ccccc2-c2ccccc21`: the mutagenic call under setting [3] is “active; positive”.

On to `O=[N+]([O-])c1cc2ccc3cccc4ccc(c1O)c2c34`, for which the mutagenic call was “active; positive” (Test System: AMES SALMONELLA TYPHIMURIUM, Strain/Indicator: TA98(NR), Metabolic Activation: NONE, Method: STANDARD PLATE); “active; positive” (Test System: AMES SALMONELLA TYPHIMURIUM, Strain/Indicator: TA98, Metabolic Activation: NONE, Method: STANDARD PLATE); “active; positive” (Test System: AMES SALMONELLA TYPHIMURIUM, Strain/Indicator: TA98, Metabolic Activation: RAT, LIVER, S-9, AROCLOR 1254, Method: STANDARD PLATE); “active; positive” under setting [4]; “active; positive” under setting [3].

`CCN(CC)CC`: the mutagenic call by setting is: (Test System: AMES SALMONELLA TYPHIMURIUM, Strain/Indicator: TA98, Metabolic Activation: HAMSTER, LIVER, S-9, AROCLOR 1254 (10%), Method: PREINCUBATION) “inactive; negative”; under setting [1], “inactive; negative”; (Test System: AMES SALMONELLA TYPHIMURIUM, Strain/Indicator: TA98, Metabolic Activation: RAT, LIVER, S-9, AROCLOR 1254 (10%), Method: PREINCUBATION) “inactive; negative”; (Test System: AMES SALMONELLA TYPHIMURIUM, Strain/Indicator: TA100, Metabolic Activation: HAMSTER, LIVER, S-9, AROCLOR 1254 (10%), Method: PREINCUBATION) “inactive; negative”; under setting [2], “inactive; negative”; (Test System: AMES SALMONELLA TYPHIMURIUM, Strain/Indicator: TA100, Metabolic Activation: RAT, LIVER, S-9, AROCLOR 1254 (10%), Method: PREINCUBATION) “inactive; negative”. The mutagenic call by setting is: (Test System: AMES SALMONELLA TYPHIMURIUM, Strain/Indicator: TA1535, Metabolic Activation: HAMSTER, LIVER, S-9, AROCLOR 1254 (10%), Method: PREINCUBATION) “inactive; negative”; (Test System: AMES SALMONELLA TYPHIMURIUM, Strain/Indicator: TA1535, Metabolic Activation: NONE, Method: PREINCUBATION) “inactive; negative”; (Test System: AMES SALMONELLA TYPHIMURIUM, Strain/Indicator: TA1535, Metabolic Activation: RAT, LIVER, S-9, AROCLOR 1254 (10%), Method: PREINCUBATION) “inactive; negative”; (Test System: AMES SALMONELLA TYPHIMURIUM, Strain/Indicator: TA1537, Metabolic Activation: HAMSTER, LIVER, S-9, AROCLOR 1254 (10%), Method: PREINCUBATION) “inactive; negative”; (Test System: AMES SALMONELLA TYPHIMURIUM, Strain/Indicator: TA1537, Metabolic Activation: NONE, Method: PREINCUBATION) “inactive; negative”; (Test System: AMES SALMONELLA TYPHIMURIUM, Strain/Indicator: TA1537, Metabolic Activation: RAT, LIVER, S-9, AROCLOR 1254 (10%), Method: PREINCUBATION) “inactive; negative”.

For `CCCCCN1C2c3ccccc3-c3ccccc3C21` (centres undefined), the mutagenic call under setting [4] was “active; positive”.

For the compound `O=C(O)C(Cl)CCl` (centres undefined), the mutagenic call is “inactive; negative” (Test System: AMES SALMONELLA TYPHIMURIUM, Strain/Indicator: TA102, Metabolic Activation: NONE, Method: STANDARD PLATE); “inactive; negative” (Test System: AMES SALMONELLA TYPHIMURIUM, Strain/Indicator: TA2638, Metabolic Activation: NONE, Method: STANDARD PLATE); “inactive; negative” (Test System: E. COLI, Strain/Indicator: WP2 (PKM101), Metabolic Activation: NONE, Method: STANDARD PLATE); “inactive; negative” (Test System: E. COLI, Strain/Indicator: WP2 UVRA (PKM101), Metabolic Activation: NONE, Method: STANDARD PLATE).

Regarding `COc1ccc2c(ccc3oc([N+](=O)[O-])cc32)c1`, the mutagenic call is “active; positive” (Test System: AMES SALMONELLA TYPHIMURIUM, Strain/Indicator: TA100(NR), Metabolic Activation: NONE, Method: STANDARD PLATE) and “active; positive” under setting [4].
